Patent US11554171B2, “Compounds and methods for the targeted degradation of bromodomain-containing proteins” (Arvinas Operations, Inc., priority 2015, dated 2023)

System: c-myc in 22RV-1 cells
Assay: Human c-myc ELISA assay
Format: cell-based
Details: Homo sapiens; for Emax: 22Rv1, 18 h, read-out: Degradation of BRD4: Maximum inhibition (%) c-Myc ELISA in 22RV1 cells; for DC50: 22Rv1, read-out: Degradation of BRD4: DC50 (uM) c-Myc ELISA in 22RV1 cells
Description: 22RV-1 cells are seeded at 30,000 cells/well at a volume of 75 μL/well in RPMI+10% FBS media in 96-well plates and grown overnight at 37 C. Cells are dosed with compounds at 4× concentration diluted in 0.4% DMSO; compounds are serially diluted 1:3 for 8-point dose curve. 25 ul of compounds is added to cells for a final concentration starting at 300 nM-0.3 nM or 1 uM-1 nM in 0.1% DMSO and incubated for 18 hrs. Media is aspirated, cells washed 1× with PBS and aspirated. Cells are lysed in 50 ul RIPA buffer (50 mM Tris pH8, 150 mM NaCl, 1% Tx-100, 0.1% SDS, 0.5% sodium deoxycholate) supplemented with protease and phosphatase inhibitors. Plates are incubated on ice for 15 minutes then centrifuged at 4 C for 10 min at 4000 rpm. Add 50 ul of cleared lysate from 96-well assay plate into 96-well c-myc ELISA plate (Novex, Life Technologies Catalog #KH02041). Reconstitute c-myc standard with standard diluent buffer; standard curve range is 333 pg/ml-0 pg/ml, diluted 1:2 for 8-point dose curve. The rest of the assay was performed following the protocol from the c-myc ELISA kit. Data is analyzed and plotted using GraphPad Prism software. Compounds described in this application were assayed and c-myc suppression potency is listed in the following Table (A: DC50<10 nM; B: DC50 10-100 nM; C: DC50: 100-1000 nM; D: DC50>1000 nM)

Row | Structure (SMILES) | DC50 | Emax
1 | Cc1ncsc1-c1ccc(CNC(=O)[C@@H]2C[C@@H](O)CN2C(=O)[C@@H](NC(=O)COCCOCCNC(=O)C[C@@H]2N=C(c3ccc(Cl)cc3)c3c(sc(C)c3C)-n3c(C)nnc32)C(C)(C)C)cc1 [Example 41, (2S,4R)-1-[(2S)-2-{2-[2-(2-{2-[(9S)-7-(4-chlorophenyl)-4,5,13-trimethyl-3-thia-1,8,11,12-tetraazatricyclo[8.3.0.0^2,^6]trideca-2(6),4,7,10,12-pentaen-9-yl]acetamido}ethoxy)ethoxy]acetamido}-3,3-dimethylbutanoyl]-4-hydroxy-N-{[4-(4-methyl-1,3-thiazol-5-yl)phenyl]methyl}pyrrolidine-2-carboxamide] | 0.1 to 1 µM | 94%
2 | Cc1ncsc1-c1ccc(CNC(=O)[C@@H]2C[C@@H](O)CN2C(=O)[C@@H](NC(=O)COCCOCCOCCNC(=O)C[C@@H]2N=C(c3ccc(Cl)cc3)c3c(sc(C)c3C)-n3c(C)nnc32)C(C)(C)C)cc1 [Example 42, (2S,4R)-1-[(2S)-2-(2-{2-[2-(2-{2-[(9S)-7-(4-chlorophenyl)-4,5,13-trimethyl-3-thia-1,8,11,12-tetraazatricyclo[8.3.0.0^2,^6]trideca-2(6),4,7,10,12-pentaen-9-yl]acetamido}ethoxy)ethoxy]ethoxy}acetamido)-3,3-dimethylbutanoyl]-4-hydroxy-N-{[4-(4-methyl-1,3-thiazol-5-yl)phenyl]methyl}pyrrolidine-2-carboxamide] | 0.01 to 0.1 µM | 98.6%
3 | Cc1ncsc1-c1ccc(CNC(=O)[C@@H]2C[C@@H](O)CN2C(=O)[C@@H](NC(=O)COCC#CC#CCOc2ccc([C@@H](C)NC(=O)C[C@@H]3N=C(c4ccc(Cl)cc4)c4c(sc(C)c4C)-n4c(C)nnc43)cc2)C(C)(C)C)cc1 [Example 43, (2S,4R)-1-[(2S)-2-{2-[(6-{4-[(1R)-1-{2-[(9S)-7-(4-chlorophenyl)-4,5,13-trimethyl-3-thia-1,8,11,12-tetraazatricyclo[8.3.0.0^2,^6]trideca-2(6),4,7,10,12-pentaen-9-yl]acetamido}ethyl]phenoxy}hexa-2,4-diyn-1-yl)oxy]acetamido}-3,3-dimethylbutanoyl]-4-hydroxy-N-{[4-(4-methyl-1,3-thiazol-5-yl)phenyl]methyl}pyrrolidine-2-carboxamide] | 0.01 to 0.1 µM | 100%
4 | Cc1ncsc1-c1ccc(CNC(=O)[C@@H]2C[C@@H](O)CN2C(=O)[C@@H](NC(=O)COCCCNC(=O)C[C@@H]2N=C(c3ccc(Cl)cc3)c3c(sc(C)c3C)-n3c(C)nnc32)C(C)(C)C)cc1 [Example 44] | 0.1 to 1 µM | 98%
5 | Cc1ncsc1-c1ccc(CNC(=O)[C@@H]2C[C@@H](O)CN2C(=O)[C@@H](NC(=O)COCCCCNC(=O)C[C@@H]2N=C(c3ccc(Cl)cc3)c3c(sc(C)c3C)-n3c(C)nnc32)C(C)(C)C)cc1 [Example 45, (2S,4R)-1-[(2S)-2-[2-(4-{2-[(9S)-7-(4-chlorophenyl)-4,5,13-trimethyl-3-thia-1,8,11,12-tetraazatricyclo[8.3.0.0^2,^6]trideca-2(6),4,7,10,12-pentaen-9-yl]acetamido}butoxy)acetamido]-3,3-dimethylbutanoyl]-4-hydroxy-N-{[4-(4-methyl-1,3-thiazol-5-yl)phenyl]methyl}pyrrolidine-2-carboxamide] | 0.1 to 1 µM | 100%
6 | Cc1ncsc1-c1ccc(CNC(=O)[C@@H]2C[C@@H](O)CN2C(=O)[C@@H](NC(=O)COCCCOCCCNC(=O)C[C@@H]2N=C(c3ccc(Cl)cc3)c3c(sc(C)c3C)-n3c(C)nnc32)C(C)(C)C)cc1 [Example 46] | 0.01 to 0.1 µM | 100%
7 | CCc1nnc2n1-c1sc(C)c(C)c1C(c1ccc(Cl)cc1)=N[C@H]2CC(=O)Nc1ccc(OCCCOCCCOCC(=O)N[C@H](C(=O)N2C[C@H](O)C[C@H]2C(=O)NCc2ccc(-c3scnc3C)cc2)C(C)(C)C)cc1 [Example 47] | 0.1 to 1 µM | 89%
8 | Cc1ncsc1-c1ccc([C@H](C)NC(=O)[C@@H]2C[C@@H](O)CN2C(=O)[C@@H](NC(=O)COCCC(=O)N2CCN(c3ccc([C@H](C)NC(=O)C[C@@H]4N=C(c5ccc(Cl)cc5)c5c(sc(C)c5C)-n5c(C)nnc54)cc3)CC2)C(C)(C)C)cc1 [Example 48, (2S,4R)-1-[(2S)-2-{2-[3-(4-{4-[(1S)-1-{2-[(9S)-7-(4-chlorophenyl)-4,5,13-trimethyl-3-thia-1,8,11,12-tetraazatricyclo[8.3.0.0^2,^6]trideca-2(6),4,7,10,12-pentaen-9-yl]acetamido}ethyl]phenyl}piperazin-1-yl)-3-oxopropoxy]acetamido}-3,3-dimethylbutanoyl]-4-hydroxy-N-[(1S)-1-[4-(4-methyl-1,3-thiazol-5-yl)phenyl]ethyl]pyrrolidine-2-carboxamide] | 0.01 to 0.1 µM | 98%
9 | Cc1ncsc1-c1ccc(CNC(=O)[C@@H]2C[C@@H](O)CN2C(=O)[C@@H](NC(=O)COCCOCCOCCCCNC(=O)C[C@@H]2N=C(c3ccc(Cl)cc3)c3c(sc(C)c3C)-n3c(C)nnc32)C(C)(C)C)cc1 [Example 51, (2S,4R)-1-[(2S)-2-(2-{2-[2-(4-{2-[(9S)-7-(4-chlorophenyl)-4,5,13-trimethyl-3-thia-1,8,11,12-tetraazatricyclo[8.3.0.0^2,^6]trideca-2(6),4,7,10,12-pentaen-9-yl]acetamido}butoxy)ethoxy]ethoxy}acetamido)-3,3-dimethylbutanoyl]-4-hydroxy-N-{[4-(4-methyl-1,3-thiazol-5-yl)phenyl]methyl}pyrrolidine-2-carboxamide] | < 0.01 µM | 97%

The next lines start with results.

Row | DC50 | Structure (SMILES) | Emax
10 | < 0.01 µM | Cc1ncsc1-c1ccc(CNC(=O)[C@@H]2C[C@@H](O)CN2C(=O)[C@@H](NC(=O)COCCCOCCNC(=O)C[C@@H]2N=C(c3ccc(Cl)cc3)c3c(sc(C)c3C)-n3c(C)nnc32)C(C)(C)C)cc1 [Example 49, (2S,4R)-1-[(2S)-2-{2-[3-(2-{2-[(9S)-7-(4-chlorophenyl)-4,5,13-trimethyl-3-thia-1,8,11,12-tetraazatricyclo[8.3.0.0^2,^6]trdeca-2(6),4,7,10,12-pentaen-9-yl]acetamido}ethoxy)propoxy]acetamido}-3,3-dimethylbutanoyl]-4-hydroxy-N-{[4-(4-methyl-1,3-thiazol-5-yl)phenyl]methyl}pyrrolidine-2-carboxamide] | 99%
11 | < 0.01 µM | Cc1ncsc1-c1ccc(CNC(=O)[C@@H]2C[C@@H](O)CN2C(=O)[C@@H](NC(=O)COCCCOCCCCCNC(=O)C[C@@H]2N=C(c3ccc(Cl)cc3)c3c(sc(C)c3C)-n3c(C)nnc32)C(C)(C)C)cc1 [Example 50, (2S,4R)-1-[(2S)-2-(2-{3-[(5-{2-[(9S)-7-(4-chlorophenyl)-4,5,13-trimethyl-3-thia-1,8,11,12-tetraazatricyclo[8.3.0.0^2,^6]trideca-2(6),4,7, 10,12-pentaen-9-yl]acetamido}pentyl)oxy]propoxy}acetamido)-3,3-dimethylbutanoyl]-4-hydroxy-N-{[4-(4-methyl-1,3-thiazol-5-yl)phenyl]methyl}pyrrolidine-2-carboxamide] | 98%
12 | 0.1 to 1 µM | Cc1ncsc1-c1ccc(CNC(=O)[C@@H]2C[C@@H](O)CN2C(=O)[C@@H](NC(=O)COCCN2CCC(c3ccc([C@H](C)NC(=O)C[C@@H]4N=C(c5ccc(Cl)cc5)c5c(sc(C)c5C)-n5c(C)nnc54)cc3)CC2)C(C)(C)C)cc1 [Example 52] | 93%
13 | > 1 µM | Cc1ncsc1-c1ccc(CNC(=O)[C@@H]2C[C@@H](O)CN2C(=O)[C@@H](NC(=O)COCCCOCCCOc2ccc(NC(=O)C[C@@H]3N=C(c4ccc(Cl)cc4)c4c(sc(C)c4C)-n4cnnc43)cc2)C(C)(C)C)cc1 [Example 53] | 56%
